Measurements: article PMC3684770 (Free Radical Biology & Medicine, 2013)
Counter-ions that a name gives are not always drawn. Like-named read-outs stand apart in the source and are kept apart here.

Key:
[1] = tested on: 1321N1 astrocyte cell line; test: 1321N1 oxidative stress assay (serum withdrawal, DCF); conditions: for Emax / IC50: Homo sapiens; for Emax: 1321-N1, 24 h, read-out: 1321N1 oxidative stress assay Max reduction; for IC50: 1321-N1, read-out: 1321N1 oxidative stress assay IC50; for 1321N1 oxidative stress assay Toxic dose: minimum dose at which toxicity was observed
Description: (§1) Media were then replaced with serum-free, phenol-free media for 5 h.

[2] = tested on: C6 astrocyte cell line; test: C6 oxidative stress assay (serum withdrawal, DCF); conditions: for Emax: 24 h, read-out: C6 oxidative stress assay Max reduction; for C6 oxidative stress assay Toxic dose: minimum dose at which toxicity was observed; for IC50: read-out: C6 oxidative stress assay IC50
Description: as §1

[3] = tested on: NSC34 cells; test: NSC34 oxidative stress assay (serum withdrawal, DCF); conditions: for Emax: NSC-34, 24 h, read-out: NSC34 oxidative stress assay Max reduction; for NSC34 oxidative stress assay Toxic dose: minimum dose at which toxicity was observed
Description: as §1

[4] = tested on: Nrf2-ARE pathway; test: ARE reporter assay in CHO 4xARE-TK-GFP cells (Spectrum library hits); conditions: for Toxic dose: lowest dose at which a reduction in GFP fluorescence was observed; for maximal fold induction: CHO, read-out: Fold GFP induction; for maximal fold induction / Fold GFP induction: 24 h; for Fold GFP induction: average fold over baseline at the maximal response, CHO cells
Description: The Z′ score was calculated as follows Z′=1−(3SD^++3SD^−)/(Ave^+–Ave^−) where SD^+ = standard deviation of positive control wells; SD^− = standard deviation of negative control wells; Ave^+ = average fluorescence reading of positive control wells; Ave^− = average fluorescence reading of negative control wells.
Media was removed by hand and replaced (1 compound/well) with the Spectrum library diluted to 10 μM in 0.1% DMSO using a Q-bot liquid handling system (Genetix, New Milton, UK). […] The TK-GFP CHO ARE cell line was screened twice in a single point assay and the control TK-GFP CHO cell line was screened once to eliminate false positives.
The compounds were applied in triplicate to confluent cells in 96 well plates in serum free medium for 24 hours and the induction of GFP measured in a fluorescence plate reader.
In order to screen the Spectrum collection of 2000 molecules the reporter assay was optimised in […]. To assess the suitability of the assay for library screening, a Z’ score calculation was performed by treating alternate wells with vehicle (0.1% DMSO) and 10 µM Ebselen as a positive control (see calculation in Methods). […] The library was subsequently screened at a single point concentration of 10µM for every compound. Drug library dilutions and plating were performed with a Q-BOT liquid handling system and both the 4xARE-TK-GFP reporter cell line and TK-GFP control cell line were tested for their response to the compounds. Hits were identified as having data points more than three standard deviations above the background level, which was the average value of 24 wells treated with vehicle (0.1% DMSO) only. Hit compounds were checked to see if they generated a response in the control cell line, for example by non-specific activation of transcription or autofluorescence. […] The library screen was repeated once in the 4xARE –TK-CHO cell line and compounds classed as hits in both screens were taken forward for further assessment.

[5] = maximum % inhibition of DCF signal

Compound	Emax [1] [%]	IC50 [1] [µM]	1321N1 oxidative stress assay Toxic dose [1]	Emax ([2]; Rattus norvegicus, Astrocyte) [%]	C6 oxidative stress assay Toxic dose [2]	Emax ([3]; Mus musculus) [%]	NSC34 oxidative stress assay Toxic dose [3]	EC50 ([4]; Cricetulus griseus) [µM]	Toxic dose [4]	IC50 ([2]; Rattus norvegicus, Astrocyte) [µM]	maximal fold induction ([4]; Cricetulus griseus)	Fold GFP induction [4] [fold]	IC50 ([3]; Mus musculus, NSC-34, read-out: NSC34 oxidative stress assay IC50) [µM]	1321N1 oxidative stress assay Max reduction [1, 5] [%]	C6 oxidative stress assay Max reduction [2, 5] [%]	IC50 ([2]; 24-h preconditioning, 6-h serum withdrawal, DCF fluorescence) [µM]	NSC34 oxidative stress assay Max reduction ([3]; maximum % inhibition of DCF signal, negative = prooxidant) [%]	EC50 ([4]; CHO ARE reporter, 7-point concentration response) [µM]
CC(=O)Oc1ccc(O)cc1 [4-Acetoxyphenol]	42	0.298	none	0	none	-70	none	2.91	100 µM									
CC1=CC(=O)C(C(C)C)=CC1=O [Thymoquinone]	25	11	None	32	None	0	None		30 µM	0.014								
O=C1C=C2C=C[C@@H]3C[C@@]2(O1)[C@H]1CCCCN31 [Securinine]	55	18.3	None	67	None	20	None	2.12	30 µM	0.645	3							
CC1(C)C2CC(=O)O[C@@]3(C)C4=CC(=O)O[C@@H](c5ccoc5)[C@]4(C)CCC3[C@@]2(C)C=C[C@H]1O (stereo partly shown) [Deoxyandirobin lactone]	65	1.64	None	38	None	0	None	11.1	100 µM	2.87								
Cc1cc(O)c(C)c(O)c1C(=O)O [3-Methylorsellinic acid]	53	3.26	none	56	none	-12	0.3 µM	9.59	100 µM	3.1								
COC(=O)[C@H](O)[C@H]1C(C)(C)[C@H](OC(C)=O)[C@@H]2CC3=C4CC(=O)O[C@@H](c5ccoc5)[C@]4(C)CC[C@@H]3[C@@]1(C)C2=O [Swietenolide 3 acetate]	60		none	50	none	0	0.3 µM	3.5	100 µM	4.22	2.82							
COc1ccc2c(c1)OC/C(=C/c1ccc(OC)c(OC)c1)C2=O [Sappanone A trimethyl ether]	40	0.279	none	27	none	-60	none	3.5	100 µM		1.99							
CC(C)N(C(=O)CCl)c1ccccc1 [Propachlor]	50	0.829	10 µM	74	10 µM	0	10 µM	1.49	100 µM	0.645		3.25						
COc1cc(O)c(C)c(O)c1 [2,6-Dihydroxy-4-methoxytoluene]	40		None	16	10 µM	28	None	45	100 µM	5.29			~3.26					
C=CC(C1=CC(=O)C(OC)=CC1=O)c1ccccc1 (stereo not shown) [4-Methoxydalbergione]	43		none	14	none	-44	none		100 µM	2.5	2.11							
COc1cccc(O)c1O [3-Methoxycatechol]	39		none	46	10 µM	-13	0.3 µM	15.4	100 µM	1.2								
C=C(CC)C(=O)c1ccc(OCC(=O)O)c(Cl)c1Cl [Ethacrynic acid, reference compound]	25	3.01		31		-30	10 µM	14	100 µM	3.01								
Cc1[nH]c2ccccc2c1CN(C)C [2-Methyl gramine]	36	11	none	36	none	-30	3 µM	3	100 µM	32	2.27							
O=C(CC[N+](=O)[O-])OC[C@H]1O[C@@H](O)[C@H](OC(=O)CC[N+](=O)[O-])[C@@H](OC(=O)CC[N+](=O)[O-])[C@@H]1OC(=O)CC[N+](=O)[O-] [Endecaphyllin X]			none		none		10 µM		None			2.15		56	40	3.15	0	18.8
CC(COc1ccccc1)NC(C)C(O)c1ccc(O)cc1 (stereo not shown) [Isoxsuprine hydrochloride, reference compound]			none	40	none	-16	none		100 µM	23								
C=C1C(=O)O[C@H]2[C@H]1CC/C(C)=C/CC[C@@]1(C)O[C@@H]21 [Parthenolide]	47	28.4	None	81	None	0	1 µM	> 100	100 µM	3.11	2.77							
CC1=C2C(=CO[C@H](C)[C@H]2C)C(O)=C(C(=O)O)C1=O [Citrinin]	28	0.338	none	23	none	0	none	4.1	30 µM	20		3.26						
